Measurements published in US20250145631A1, “HETEROCYCLIC COMPOUND ACTING ON G12D MUTANT KRAS PROTEIN” (Astellas Pharma Inc., priority 2022, published 2025).
pIC50: −log10 of the molar value.

Key:
Type in all cases: cell-based
[1] = test system: phosphorylation of ERK (Thr202/Tyr204); experiment: ERK phosphorylation inhibitory effect by Cell ELISA in AsPC-1 cells (Test Example 2); conditions: Homo sapiens; for pIC50: ASPC1, overnight treatment, Cell ELISA, read-out: IC50 (ERK phosphorylation inhibition)
Experimental: The ERK phosphorylation inhibitory effect of test compounds was evaluated by measuring phosphorylation of threonine 202 (Thr202) and tyrosine 204 (Tyr204) of ERK located downstream of the KRAS signal by Cell ELISA.
AsPC-1 cells were seeded on 384-well plates at 20 µL/well to give 2.0×10^4 cells per well. As for the cell culture conditions, RPMI 1640 medium containing 10% fetal bovine serum was used in the presence of 5% CO2 at 37° C.
The next day, the test compounds (10 points having final concentrations in the range of 10 μM to 0.3 nM), trametinib (MEK inhibitor) of a final concentration of […] as positive control and DMSO, which was the solvent for the test compounds, as negative control were diluted 500-fold with a fresh medium and were added at 20 μL per well. The cells were cultured overnight. After culturing, 30% glyoxal solution (40% glyoxal [from Nacalai Tesque]was diluted with PBS) was quickly added at 30 μL per well, and the plates were allowed to stand for 120 minutes at room temperature to thus immobilize the cells. Then, the plates were centrifuged to remove the supernatant (using a centrifugal dehydrator machine, the supernatant was removed by the same method hereinafter), and 0.10% Triton X-100-containing PBS was added at 20 μL per well. After allowing to stand for 10 minutes at room temperature, the supernatant was removed, and the same operation was further repeated. Next, 0.5% SDS-containing PBS was added at 20 μL per well, and after allowing to stand at room temperature for 30 minutes, the supernatant was removed. Subsequently, blocking solution (Intercept Blocking Buffer) was added at 20 μL per well, and the plates were allowed to stand for 1 hour at room temperature. The supernatant was removed, and an ERK (Thr202/Tyr204) phosphorylation antibody (Phospho-p44/42 MAPK (Erk 1/2) (Thr202/Tyr204) (D13.14.4E) XP Rabbit mAb; from Cell Signaling Technology) diluted 2,500-fold with blocking solution was added at 15 μL per well as a primary antibody. The plates were allowed to stand at 4° C. overnight.
The next day, the supernatant was removed. 0.05% Tween-20 (from Thermo Fisher Scientific)-containing PBS was added at 50 μL per well, and the supernatant was removed to thus wash each well. The washing was performed three times in total. After washing, Goat anti-Rabbit IgG H&L (IRDye 800CW) diluted 1,000-fold with blocking solution was added at 15 μL per well as a secondary antibody, and the plates were allowed to stand for 1 hour at room temperature. The supernatant was removed, and each well was washed three times with 0.05% Tween-20-containing PBS in the same manner as after the primary antibody reaction. After removing the supernatant, the plates were dried with air at room temperature for 3 hours or more, and the 800-nm fluorescent signals were measured with Aerius.
With the signaling value at the time of addition of DMSO taken as 100% and with the signaling value at the time of addition of […] trametinib taken as 0%, the 50% inhibitory concentration values (IC50) were calculated by Sigmoid-Emax nonlinear regression analysis. The calculated 50% inhibition represents the inhibition at the highest concentration evaluated (10 μM) for a compound that exceeds the concentration in the evaluation range.
(§1) In the tables presented below, Ex represents Example No. The IC50 of Ex. 13, Ex. 15, and Ex. 16 were calculated using the molecular weights as tetrahydrochloride, and the IC50 of Ex. 14 was calculated using the molecular weight as trihydrochloride.

[2] = test system: human G12D mutant KRAS-positive pancreatic cancer line AsPC-1; experiment: Non-anchorage-dependent cell growth inhibitory effect, spheroid 3D culture (Test Example 3); conditions: ASPC1, 144 h, AsPC-1 spheroid 3D culture, 6 days; for pIC50: CellTiter Glo 2.0, read-out: IC50 (non-anchorage-dependent cell growth inhibition); for inhibition at 10 µM: read-out: cell growth inhibition at the highest concentration evaluated
Experimental: The non-anchorage-dependent cell growth inhibitory effect of test compounds was evaluated by spheroid 3D cell culture.
AsPC-1 cells were seeded on low-cell-adhesive round bottom 384-well plates (PrimeSurface: from Sumitomo Bakelite) at 20 μL (or […])/well to give 5×10^2 cells per well. As for the cell culture conditions, RPMI 1640 medium containing 10% fetal bovine serum was used in the presence of 5% CO2 at 37° C.
The next day, the test compounds (10 points or 6 points having final concentrations in the range of 10 μM to 0.3 nM) and DMSO, which was the solvent for the test compounds, as a negative control were diluted 500-fold (or 100-fold) with a fresh medium and were added at 20 μL (or […]) per well. After culturing in the presence of 5% C02 at 37° C. for 6 days, CellTiter Glo 2.0 (from Promega) was added at 20 μL per well. After stirring with a plate mixer (from FINEPCR) at normal temperature for 1 hour, the luminescent signals were measured with ARVO X3 (from PerkinElmer).
With the signaling value in treatment with DMSO taken as 100% and with the signaling value in the medium alone without cells taken as 0%, the 50% inhibitory concentration values (IC50) were calculated by Sigmoid-Emax nonlinear regression analysis. The calculated 50% inhibition represents the inhibition at the highest concentration evaluated (10 μM) for a compound that exceeds the concentration in the evaluation range.
as §1

KRAS G12D = molecular target: T1, KRAS G12D (Homo sapiens, UniProt P01116, G12D); experiment: KRAS degradation activity by Cell ELISA in AsPC-1 cells (Test Example 1); conditions: for Dmax: ASPC1, overnight treatment, read-out: Dmax (degradation rate at the concentration showing highest degradation); for Dmax / DC50: Cell ELISA; for DC50: overnight treatment, read-out: DC50 (50% degradation concentration of KRAS); for degradation rate at the highest concentration evaluated (printed in DC50 column): at 10 μM
T1 construct: host or cells: AsPC-1 (human pancreatic cancer line)
Experimental: The KRAS degradation activity of test compounds was evaluated by measuring the expression levels of KRAS G12D by Cell ELISA.
AsPC-1 cells were seeded at 20 μL per well on 384-well plates (from Greiner bio-one) to give 2.0×10^4 cells per well. As for the cell culture conditions, RPMI 1640 (from Sigma-Aldrich) medium containing 10% fetal bovine serum (from Cytiva) was used in the presence of 5% CO2 at 37° C.
The next day, the test compounds (10 points having final concentrations in the range of 10 μM to 0.3 nM) and DMSO (from FUJIFILM Wako Pure Chemical Corporation), which was the solvent for the test compounds, as a negative control were diluted 500-fold with a fresh medium and were added at 20 μL per well. The cells were cultured overnight. The next day, the culture supernatant was removed, and 4% paraformaldehyde phosphate buffer (from FUJIFILM Wako Pure Chemical Corporation) was added at 20 μL per well. The plates were allowed to stand for 30 minutes at room temperature to thus immobilize the cells. Then, the supernatant was removed, and 0.1% Triton X-100 (from Amersham Biosciences)-containing Phosphate buffered saline (PBS; from FUJIFILM Wako Pure Chemical Corporation) was added at 20 μL per well. After allowing to stand for 10 minutes at room temperature, the supernatant was removed. PBS was added at 25 μL per well, and the supernatant was removed to thus wash each well. The washing was performed twice in total. Next, the supernatant was removed, and 0.5% sodium dodecyl sulfate (SDS; from Invitrogen)-containing PBS was added at 20 μL per well. After allowing to stand at room temperature for 10 minutes, the supernatant was removed by a centrifugal operation (using a centrifugal dehydrator machine, the supernatant was removed by the same method hereinafter). PBS was added at 25 μL per well, and the supernatant was removed to thus wash each well. The washing was performed twice in total. The supernatant was removed, and blocking solution (Intercept Blocking Buffer; from Li—COR Biosciences) was added at 20 μL per well. After allowing to stand for 30 minutes at room temperature, the supernatant was removed, and a solution obtained by diluting anti-β-actin antibody (Anti-beta Actin antibody [mAbcam 8226]-Loading Control; from abcam) 1,000-fold with blocking solution and a solution obtained by diluting anti-Ras (G12D Mutant Specific) antibody (Ras (G12D Mutant Specific) (D8H7) Rabbit mAb #14429; from Cell Signaling Technology) and anti-β-actin antibody (from abcam) 1,000-fold with blocking solution were respectively added to positive control wells and the other wells at 15 μL per well as a primary antibody. The plates were allowed to stand overnight at 4° C.
The next day, the supernatant was removed. PBS was added at 25 μL per well, and the supernatant was removed to thus wash each well. The washing was performed twice in total. The supernatant was removed, and a solution obtained by diluting Donkey anti-Mouse IgG H&L (IRDye 680RD) (from Li—COR Biosciences) and Goat anti-Rabbit IgG H&L (IRDye 800CW) (from Li—COR Biosciences) 1,000-fold with blocking solution was added at 15 μL per well as a secondary antibody. A solution obtained by diluting Donkey anti-Mouse IgG H&L (IRDye 680RD) (from Li—COR Biosciences) 1,000-fold with blocking solution was added to a positive control well as a secondary antibody. After allowing to stand for 1 hour at room temperature, the supernatant was removed. PBS was added at […], and the supernatant was removed to thus wash each well. The washing was performed twice in total. After removing the supernatant, the plates were dried with air at room temperature for 2 hours or more, and the 700 nm and 800 nm fluorescent signals were measured with Aerius (from Li—COR Biosciences). […]

T1 sequence (P01116 1-188 isoform P01116-2 G12D): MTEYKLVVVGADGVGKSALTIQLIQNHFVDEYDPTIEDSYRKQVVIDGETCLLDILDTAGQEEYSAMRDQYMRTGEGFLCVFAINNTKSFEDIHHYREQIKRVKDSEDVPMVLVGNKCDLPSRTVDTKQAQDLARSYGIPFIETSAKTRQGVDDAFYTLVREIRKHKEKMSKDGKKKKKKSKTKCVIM

Row | SMILES | pIC50 [1] | pIC50 [2] | Dmax (KRAS G12D) [%] | DC50 (KRAS G12D) [nM] | degradation rate at the highest concentration evaluated (printed in DC50 column) (KRAS G12D) [% at 10 μM] | inhibition at 10 µM [2] [%] | inhibition at 10 µM ([1]; ASPC1, at 10 μM, read-out: ERK phosphorylation inhibition at the highest concentration evaluated) [%]
1 | Cc1c(F)cc2[nH]ncc2c1-c1c(C2CC2)cc2c(N3C[C@@H]4C[C@H]3CN4)nc(OC3CCOCC3)nc2c1OCc1ccc(C(=O)N2CCN(Cc3ccc4c(c3)c(N3CCC(=O)NC3=O)nn4C)C[C@@H]2C)cc1 (atropisomer, axis not shown) [Example 27] | 5.56 | 5.72 | 25 |  | 25 |  | 
2 | Cc1c(F)cc2[nH]ncc2c1-c1c(C2CC2)cc2c(N3C[C@@H]4C[C@H]3CN4)nc(OC3CCOCC3)nc2c1OCc1ccc(C(=O)N2CCN(Cc3cccc4c3oc(=O)n4C3CCC(=O)NC3=O)CC2)cc1 (some centres unmarked) [Example 6] | 5.40 |  | 49 | 2730 |  | 50 | 
3 | Cc1c(F)cc2[nH]ncc2c1-c1c(C2CC2)cc2c(N3C[C@@H]4C[C@H]3CN4)nc(OC3CCOCC3)nc2c1OCc1ccc(C(=O)N2CCN(Cc3ccc4c(c3)C(=O)N(C3CCC(=O)NC3=O)C4=O)CC2)cc1 (some centres unmarked) [Example 1] | 5.47 |  | 59 | 1950 |  | 37 | 
4 | Cc1nc(N2CCN(C(=O)c3ccc(COc4c(-c5c(C)c(F)cc6[nH]ncc56)c(C5CC5)cc5c(N6C[C@@H]7C[C@H]6CN7)nc(OC6CCOCC6)nc45)cc3)CC2)ccc1N1CCC(=O)NC1=O (atropisomer, axis not shown) [Example 14] | 5.82 | 5.95 | 51 | 2180 |  |  | 
5 | Cc1c(F)cc2[nH]ncc2c1-c1c(C2CC2)cc2c(N3C[C@@H]4C[C@H]3CN4)nc(OC3CCOCC3)nc2c1OCc1ccc(C(=O)N2C[C@H]3C[C@@H]2CN3Cc2ccc3c(c2)C(=O)N(C2CCC(=O)NC2=O)C3=O)cc1 (some centres unmarked) [Example 4] |  |  | 40 |  | 40 | 22 | 33

Further lines, with some results ahead:

Row | pIC50 [1] | pIC50 [2] | Dmax (KRAS G12D) [%] | DC50 (KRAS G12D) [nM] | degradation rate at the highest concentration evaluated (printed in DC50 column) (KRAS G12D) [% at 10 μM] | SMILES | inhibition at 10 µM [2] [%] | inhibition at 10 µM ([1]; ASPC1, at 10 μM, read-out: ERK phosphorylation inhibition at the highest concentration evaluated) [%]
6 | 6.55 | 6.89 | 84 | 114 |  | Cc1c(F)cc2[nH]ncc2c1-c1c(C2CC2)cc2c(N3C[C@@H]4C[C@H]3CN4)nc(OC3CCOCC3)nc2c1OCc1ccc(C(=O)N2CCN(Cc3ccc4c(N5CCC(=O)NC5=O)n(C)nc4c3)C[C@@H]2C)cc1 (atropisomer, axis not shown) [Example 22] |  | 
7 | 7.52 | 7.34 | 88 | 23 |  | Cc1c(F)cc2[nH]ncc2c1-c1c(C2CC2)cc2c(N3C[C@@H]4C[C@H]3CN4)nc(OC[C@@H]3CCCO3)nc2c1OCc1ccc(C(=O)N2CCN(Cc3ccc4c(c3)n(C)c(=O)n4C3CCC(=O)NC3=O)C[C@@H]2C)cc1 (some centres unmarked) [Example 40] |  | 
8 | 7.22 | 7.14 | 80 | 35 |  | Cc1c(F)cc2[nH]ncc2c1-c1c(C2CC2)cc2c(N3C[C@@H]4C[C@H]3CN4)nc(OC3CCOCC3)nc2c1OCc1ccc(C(=O)N2CCN(Cc3ccc4c(c3)n(C)c(=O)n4C3CCC(=O)NC3=O)CC2)cc1 (some centres unmarked) [Example 7] |  | 
9 | 7.89 | 7.48 | 90 | 9 |  | CO[C@@H](C)COc1nc(O[C@H]2CCNC2)c2cc(C3CC3)c(-c3c(C)c(F)cc4[nH]ncc34)c(OCc3ccc(C(=O)N4CCN(Cc5ccc6c(c5)n(C)c(=O)n6C5CCC(=O)NC5=O)C[C@@H]4C)cc3)c2n1 (some centres unmarked) [Example 43] |  | 
10 | 7.16 | 7.22 | 78 | 46 |  | Cc1c(F)cc2[nH]ncc2c1-c1c(C2CC2)cc2c(O[C@H]3CCNC3)cc(OC[C@H]3CCCO3)nc2c1OCc1ccc(C(=O)N2CCN(Cc3ccc4c(c3)n(C)c(=O)n4C3CCC(=O)NC3=O)C[C@@H]2C)cc1 (atropisomer, axis not shown) [Example 32] |  | 
11 | 6.22 | 5.91 | 66 | 408 |  | Cc1c(F)cc2[nH]ncc2c1-c1c(C2CC2)cc2c(N3C[C@@H]4C[C@H]3CN4)nc(OC3CCOCC3)nc2c1OCc1ccc(C(=O)N2CCN(Cc3ccc4c(N5CCC(=O)NC5=O)nn(C)c4c3)CC2)cc1 (atropisomer, axis not shown) [Example 13] |  | 
